Assay results published in patent publication US20050027016A1, “Polyamine compounds and compositions for use in conjection with cancer therapy” (priority 2002, published 2005).
Like-named read-outs stand apart in the source and are kept apart here.

Key:
[1] = tested on: primary, diploid fibroblasts isolated from human skin; test: In vitro growth inhibition of primary diploid human skin fibroblasts; type: cell-based
Protocol: FIG. 2 illustrates the relationship between the number of aliphatic carbon atoms in each chemoprotective polyamine side chain (‘arm’) and the respective IC50 dose for inhibition of human fibroblast growth.
The in vitro growth inhibitory effects of certain of the chemoprotective polyamines of the invention were measured using primary, diploid fibroblasts isolated from human skin.

helical B-DNA = test: DNA binding/denaturation/precipitation from solution
Source text: The chemoprotective polyamines of the invention are also able to bind, denature and precipitate DNA from solution As is known in the field, as the concentration of polyamine is increased, there is a point where polyamine binding to helical B-DNA induces single-stranded ‘bubbles’ and conversion to other forms of DNA structure, such as 2-DNA (Feuerstein, B. et al. Nuc. Acids Res. 17:6883-6892, 1989; Basu, H. and Marton, L. Biochem. J. 244:243-246, 1987), as well as precipitating the DNA from solution.
This relationship between arm length of the chemoprotective polyamine and increased ability to disrupt and denature B-DNA structure is also a unique aspect of this invention. The increased ability to bind DNA and disrupt its helical structure may also contribute to the molecule's ability to protect cellular DNA against electrophilic chemotherapy drug metabolites and against oxygen free radicals generated during radiotherapy. Both of these toxic modalities are believed to require normal B-DNA helical structure within the cell's nuclear DNA in order to achieve chemical or physical disruption of the cellular DNA, the first step in the apoptotic cascade.

p21 = p21 induction in 23SK human skin cells by western analysis; type: cell-based; details: 30 hr exposure
Protocol: FIGS. 3A and 3B illustrate the level of induced p21 protein seen in diploid human fibroblasts after a 30 hr exposure to each of the indicated chemoprotective polyamines. […] In these experiments, the 23SK human skin cells were exposed for 30 hr to an “ICso” dose of each of the indicated chemoprotective polyamines and then lysed. Cell extracts were then prepared in order to measure p21 levels by western analysis (FIG. 3A).
FIG. 3 illustrates that chemoprotective polyamines are able to induce expression of the negative cell cycle regulatory protein, p21, after exposing the human skin cells to the polyamine molecules. […] In these experiments, the 23SK human skin cells were exposed for 30 hr to an “IC80” dose of each of the indicated chemoprotective polyamines and then lysed. Cell extracts were then prepared in order to measure p21 levels by western analysis (FIG. 3A). Although the ability of modified polyamines to induce p21 is known in the literature (Kramer, D. et al., Cancer Res. 59:1278-1286, 1999), it is a novel aspect of this invention that those chemoprotective polyamines with longer aliphatic “arms” were better able to induce expression of p21 as shown in FIG. 4.

23SK skin cells = test: Cell cycle distribution by flow cytometry in 23SK skin cells; type: cell-based, human; details: for Cell Cycle Distribution At IC80 Dose: G1 / Cell Cycle Distribution At IC80 Dose: G2/M / Cell Cycle Distribution At IC80 Dose: S: 23SK cells
Source text: FIGS. 5A-5D are cell histograms showing the results from flow cytometry analysis of chemoprotective polyamine-treated 23SK skin cells.
In FIG. 5, cell histograms showing the results from flow cytometry analysis of chemoprotective polyamine-treated 23SK skin cells are shown. […] The transient nature of the cell cycle block induced by chemoprotective polyamines is believed to be an important aspect of their efficacy, i.e., their ability to block cell cycle progression in stem cells during the course of chemo- or radiotherapy, and the resumption of normal stem cell division after a given cancer therapy course has been completed.

[2] = tested on: Cytoxan-induced alopecia in the rat model; type: in vivo; details: rat pups, 35 ug/gm i.p., approximately 7 days after challenge
Source text: FIGS. 6A-6E illustrate the efficacy of each of the indicated chemoprotective polyamines in protecting against Cytoxan-induced alopecia in the rat model Hussein et al., 1990, infra). In this protocol (See Example 2), chemoprotective polyamines are applied topically to the rat pups' backs in an alcohol:water delivery vehicle, once per day, for five days before and five days after a single systemic dose of Cytoxan.
The efficacy of […] polyamines in reducing or preventing chemotherapy-induced alopecia in a rat model was examined. This animal model mimics many of the features found in chemotherapy-induced alopecia seen in humans and is considered a clinically relevant model for testing novel therapeutics.
Induction of alopecia by cytoxan (CTX). Lactating Sprague Dawley mother rats with rat pups were purchased from Harlan Sprague Dawley (Indianapolis, Ind.). The mother rats were given food and water ad libitum. The rats pups were tested in the model of chemotherapy-induced alopecia described by Hussein A. M. et al., Science: 249, 1564 (1990). Cytoxan (CTX), a chemotherapeutic widely used in the treatment of cancer, was used to induce alopecia in the rats. […]
Approximately 7 to 10 days after CTX treatment, the pups were evaluated for alopecia Hair loss was evaluated using a modified alopecia-scoring index described by Chen G. et al., Int. […]

[3] = Expt. 1, read-out: IC50 (drug concentration that caused a 50% inhibition of cell growth), Expt. 1
[4] = Expt. 1 (first or only value in cell), read-out: DNA Bind/ppt. IC50, Expt. 1
[5] = Expt. 2 (second value in cell), read-out: DNA Bind/ppt. IC50, Expt. 2
[6] = Expt. 2, read-out: IC50 (drug concentration that caused a 50% inhibition of cell growth), Expt. 2
[7] = 23SK cells treated for 72 hr (FIG. 5C)

SMILES	IC50 [1, 3] [µM]	IC50 (helical B-DNA; [4]) [µM]	IC50 (helical B-DNA; [5]) [µM]	p21 fold-induction at IC80 Dose (p21)	Cell Cycle Distribution At IC80 Dose: G1 (23SK skin cells) [%]	Cell Cycle Distribution At IC80 Dose: G2/M (23SK skin cells) [%]	Cell Cycle Distribution At IC80 Dose: S (23SK skin cells) [%]	IC50 [1, 6] [µM]	cells in G1 compartment (23SK skin cells; [7]) [%]	cells in S+G2 compartments (23SK skin cells; [7]) [%]	distribution within cell cycle compartments after drug removal (23SK skin cells; 72 hr treatment, then 48 hr in medium devoid of compound (FIG. 5D))	hair loss induced [2] [%]
CCNCCCCNCCCCNCCCCNCC=C(CS)CNCCCCNCCCCNCCCCNCC [PrC-116]	5.8	82	63	2.32 fold	66	23	11					
CCNCCCCNCCCCNCCCCNCCCCNCC=C(CS)CNCCCCNCCCCNCCCCNCCCCNCC [PrC-117]	0.32	58	57	˜3.0 fold	86	3	11	0.24	86.23	13.77	basically returned to that seen in cells previously untreated with chemoprotective polyamine	
O=P1(N(CCCl)CCCl)NCCCO1 (stereo not drawn) [CTX, cyclophosphamide(cytoxan)]												100
CCNCCCCNCCCCNCCCCNCC=C(CNCC)CNCCCCNCCCCNCCCCNCC [PrC-112]					61	16	23					
CCNCCCCNCCCCNCCCCNCCCCNCC=C(CNC)CNCCCCNCCCCNCCCCNCCCCNCC [PrC-120]	0.22	57		2.01 fold				0.18				
CCNCCCCNCC=C(CNCC)CNCCCCNCC [PrC-110]					60	14	26					
CCNCCCCNCCCCNCCCCNCCCCNCC=C(CNCCCCNCCCCNCCCCNCCCCNCC)CN(C)C [PrC-121]	0.15	49		3.26 fold	76	20	4					
CCNCCCCNCCCCNCC=C(CS)CNCCCCNCCCCNCC [PrC-115]	4100	37	83					1090				
CCNCCCCNCCCCNCC=C(CNCC)CNCCCCNCCCCNCC [PrC-111]					60	14	25					
CCNCCCCNCCCCNCCCCNCCCCNCC=C(CNCC)CNCCCCNCCCCNCCCCNCCCCNCC [PrC-113]					77	14	8					
CN[C@H]1CCc2cc(OC)c(OC)c(OC)c2-c2ccc(OC)c(=O)cc21 [Colcemid, reference compound]					8	81	11					
CCNCCCCNCC=C(CS)CNCCCCNCC [PrC-114]	850	94						240				
